Laboratory results reported in patent publication US8637525B2, “Compounds for the reduction of beta-amyloid production” (Bristol-Myers Squibb Company, priority 2009, dated 2014).

Each compound was assayed on Aβ1-42 production (assay: Cellular assay for inhibition of Aβ1-42 production (H4 APP751 SWE clone 8.20)). Settings: 19 h, H4 APP751 SWE clone 8.20 cells, 19 h incubation; class symbols; read-out: Activity Rating (Aβ42 cellular IC50).
Assay type: cell-based
How it was run: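 Inhibition values are IC50s fitted to Viewlux counts after a 19 h compound exposure at 37 °C. Aβ42 was captured by the neoepitope-specific antibody 565 (0.8 ng/well) paired with N-terminal 26D6 (75 ng/well), incubated overnight at 4 °C in pH 7.4 Tris-HCl buffer containing 0.2% BSA.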

IC50 [nM] | SMILES
1.5 to 9.9 | CCNc1nc(Nc2ccc(-n3cnc(Cl)c3)c(OC)c2)nc2c1COCC2c1ccc(C#N)cc1 (centres unmarked) [Example 121A, 4-(2-(4-(4-chloro-1H-imidazol-1-yl)-3-methoxyphenylamino)-4-(ethylamino)-7,8-dihydro-5H-pyrano[4,3-d]pyrimidin-8-yl)benzonitrile]
1.5 to 9.9 | CNc1nc(Nc2ccc(-n3cnc(Cl)c3)c(OC)c2)nc2c1COCC2c1ccc(OC(F)(F)F)cc1 (centres unmarked) [Example 122A, N2-(4-(4-chloro-1H-imidazol-1-yl)-3-methoxyphenyl)-N4-methyl-8-(4-(trifluoromethoxy)phenyl)-7,8-dihydro-5H-pyrano[4,3-d]pyrimidine-2,4-diamine]
10 to 100 | COc1cc(Nc2nc3c(c(N4CC[C@@H](F)C4)n2)COCC3c2ccc(OC(F)(F)F)cc2)ccc1-n1cnc(Cl)c1 (some centres unmarked) [Example 123A]
10 to 100 | COc1cc(Nc2ncc3c(n2)C(c2ccccc2)CCC3)ccc1-n1cnc(Cl)c1 (centres unmarked) [Example 125, N-(4-(4-chloro-1H-imidazol-1-yl)-3-methoxyphenyl)-8-phenyl-5,6,7,8-tetrahydroquinazolin-2-amine]
10 to 100 | CCN(C)c1nc(Nc2ccc(-n3cnc(Cl)c3)c(OC)c2)nc2c1CCCC2c1ccc(F)cc1 (centres unmarked) [Example 126, N^2-(4-(4-Chloro-1H-imidazol-1-yl)-3-methoxyphenyl)-N^4-ethyl-8-(4-fluorophenyl)-N^4-methyl-5,6,7,8-tetrahydroquinazoline-2,4-diamine]
100 to 1000 | COc1cc(Nc2ncc3c(n2)C(c2ccc(F)cc2)CCC3)ccc1-n1cnc(Cl)c1 (centres unmarked) [Example 128, N-(4-(4-Chloro-1H-imidazol-1-yl)-3-methoxyphenyl)-8-(4-fluorophenyl)-5,6,7,8-tetrahydroquinazolin-2-amine]
1.5 to 9.9 | CNc1nc(Nc2ccc(-n3cnc(Cl)c3)c(OC)c2)nc2c1CN(S(C)(=O)=O)CC2c1ccccc1 (centres unmarked) [Example 129A, N2-(4-(4-chloro-1H-imidazol-1-yl)-3-methoxyphenyl)-N4-methyl-6-(methylsulfonyl)-8-phenyl-5,6,7,8-tetrahydropyrido[4,3-d]pyrimidine-2,4-diamine]
1.5 to 9.9 | CNc1nc(Nc2ccc(-n3cnc(Cl)c3)c(OC)c2)nc2c1CN(S(=O)(=O)C1CC1)CC2c1ccccc1 (centres unmarked) [Example 130, N2-(4-(4-chloro-1H-imidazol-1-yl)-3-methoxyphenyl)-6-(cyclopropylsulfonyl)-N4-methyl-8-phenyl-5,6,7,8-tetrahydropyrido[4,3-d]pyrimidine-2,4-diamine]
10 to 100 | CCNc1nc(Nc2ccc(-n3cnc(Cl)c3)c(OC)c2)nc2c1CN(C(=O)C1CC1)CC2c1ccccc1 (centres unmarked) [Example 132, (2-(4-(4-chloro-1H-imidazol-1-yl)-3-methoxyphenylamino)-4-(ethylamino)-8-phenyl-7,8-dihydropyrido[4,3-d]pyrimidin-6(5H)-yl)(cyclopropyl)methanone]
1.5 to 9.9 | CCNc1nc(Nc2ccc(-n3cnc(Cl)c3)c(OC)c2)nc2c1CN(S(C)(=O)=O)CC2c1ccccc1 (centres unmarked) [Example 134, N2-(4-(4-chloro-1H-imidazol-1-yl)-3-methoxyphenyl)-N4-ethyl-6-(methylsulfonyl)-8-phenyl-5,6,7,8-tetrahydropyrido[4,3-d]pyrimidine-2,4-diamine]
10 to 100 | CCNc1nc(Nc2ccc(-n3cnc(Cl)c3)c(OC)c2)nc2c1CN(C(=O)CN(C)C)CC2c1ccccc1 (centres unmarked) [Example 135, 1-(2-(4-(4-chloro-1H-imidazol-1-yl)-3-methoxyphenylamino)-4-(ethylamino)-8-phenyl-7,8-dihydropyrido[4,3-d]pyrimidin-6(5H)-yl)-2-(dimethylamino)ethanone]
1.5 to 9.9 | CCNc1nc(Nc2ccc(-n3cnc(Cl)c3)c(OC)c2)nc2c1CN(S(=O)(=O)C1CC1)CC2c1ccccc1 (centres unmarked) [Example 136, N2-(4-(4-chloro-1H-imidazol-1-yl)-3-methoxyphenyl)-6-(cyclopropylsulfonyl)-N4-ethyl-8-phenyl-5,6,7,8-tetrahydropyrido[4,3-d]pyrimidine-2,4-diamine]
1.5 to 9.9 | CCNc1nc(Nc2ccc(-n3cnc(Cl)c3)c(OC)c2)nc2c1CN(C(C)=O)CC2c1ccccc1 (centres unmarked) [Example 137A, 1-(2-(4-(4-chloro-1H-imidazol-1-yl)-3-methoxyphenylamino)-4-(ethylamino)-8-phenyl-7,8-dihydropyrido[4,3-d]pyrimidin-6(5H)-yl)ethanone]
10 to 100 | CCNc1nc(Nc2ccc(-n3cnc(C)n3)c(F)c2)nc2c1CN(S(C)(=O)=O)CC2c1ccccc1 (centres unmarked) [Example 139, N4-ethyl-N2-(3-fluoro-4-(3-methyl-1H-1,2,4-triazol-1-yl)phenyl)-6-(methylsulfonyl)-8-phenyl-5,6,7,8-tetrahydropyrido[4,3-d]pyrimidine-2,4-diamine]

Same assay, conditions: 19 h, H4 APP751 SWE clone 8.20 cells, 19 h incubation; read-out: Activity Rating (Aβ42 cellular IC50), numeric value

IC50 [nM] | SMILES
120 | CCNc1nc(Nc2ccc(-n3cnc(Cl)c3)c(OC)c2)nc2c1COCC2c1ccc(C#N)cc1 (centres unmarked) [Example 121B, 4-(2-(4-(4-chloro-1H-imidazol-1-yl)-3-methoxyphenylamino)-4-(ethylamino)-7,8-dihydro-5H-pyrano[4,3-d]pyrimidin-8-yl)benzonitrile]
370 | COc1cc(Nc2nc3c(c(N4CC[C@@H](F)C4)n2)COCC3c2ccc(OC(F)(F)F)cc2)ccc1-n1cnc(Cl)c1 (some centres unmarked) [Example 123B]
15 | CCNc1nc(Nc2ccc(-n3cnc(Cl)c3)c(OC)c2)nc2c1CN(C(=O)C1CC1)CC2c1ccccc1 (centres unmarked) [Example 132A, (2-(4-(4-chloro-1H-imidazol-1-yl)-3-methoxyphenylamino)-4-(ethylamino)-8-phenyl-7,8-dihydropyrido[4,3-d]pyrimidin-6(5H)-yl)(cyclopropyl)methanone]
3.6 | CCNc1nc(Nc2ccc(-n3cnc(Cl)c3)c(OC)c2)nc2c1CN(S(C)(=O)=O)CC2c1ccccc1 (centres unmarked) [Example 134A, N2-(4-(4-chloro-1H-imidazol-1-yl)-3-methoxyphenyl)-N4-ethyl-6-(methylsulfonyl)-8-phenyl-5,6,7,8-tetrahydropyrido[4,3-d]pyrimidine-2,4-diamine]
11 | CCNc1nc(Nc2ccc(-n3cnc(Cl)c3)c(OC)c2)nc2c1CN(C(C)=O)CC2c1ccccc1 (centres unmarked) [Example 137, 1-(2-(4-(4-chloro-1H-imidazol-1-yl)-3-methoxyphenylamino)-4-(ethylamino)-8-phenyl-7,8-dihydropyrido[4,3-d]pyrimidin-6(5H)-yl)ethanone]

Same assay, conditions: H4 APP751 SWE clone 8.20 cells, 19 h incubation; class symbols; read-out: Activity Rating (Aβ42 cellular IC50)

IC50 [nM] | SMILES
100 to 1000 | CNc1nc(Nc2ccc(-n3cnc(Cl)c3)c(OC)c2)nc2c1COCC2c1ccc(C(F)(F)F)cc1 (centres unmarked) [Example 120B, N2-(4-(4-chloro-1H-imidazol-1-yl)-3-methoxyphenyl)-N4-methyl-8-(4-(trifluoromethyl)phenyl)-7,8-dihydro-5H-pyrano[4,3-d]pyrimidine-2,4-diamine]
10 to 100 | CCNc1nc(Nc2ccc(-n3cnc(Cl)c3)c(OC)c2)nc2c1CN(C(=O)OC)CC2c1ccccc1 (centres unmarked) [Example 131, Methyl 2-(4-(4-chloro-1H-imidazol-1-yl)-3-methoxyphenylamino)-4-(ethylamino)-8-phenyl-7,8-dihydropyrido[4,3-d]pyrimidine-6(5H)-carboxylate]
1.5 to 9.9 | CCNc1nc(Nc2ccc(-n3cnc(Cl)c3)c(OC)c2)nc2c1CN(C(=O)OC)CC2c1ccccc1 (centres unmarked) [Example 131A, Methyl 2-(4-(4-chloro-1H-imidazol-1-yl)-3-methoxyphenylamino)-4-(ethylamino)-8-phenyl-7,8-dihydropyrido[4,3-d]pyrimidine-6(5H)-carboxylate]
10 to 100 | CCNc1nc(Nc2ccc(-n3cnc(Cl)c3)c(OC)c2)nc2c1CN(C(=O)COC)CC2c1ccccc1 (centres unmarked) [Example 133, 1-(2-(4-(4-chloro-1H-imidazol-1-yl)-3-methoxyphenylamino)-4-(ethylamino)-8-phenyl-7,8-dihydropyrido[4,3-d]pyrimidin-6(5H)-yl)-2-methoxyethanone]
1.5 to 9.9 | CCNc1nc(Nc2ccc(-n3cnc(Cl)c3)c(OC)c2)nc2c1CN(C(=O)COC)CC2c1ccccc1 (centres unmarked) [Example 133A, 1-(2-(4-(4-chloro-1H-imidazol-1-yl)-3-methoxyphenylamino)-4-(ethylamino)-8-phenyl-7,8-dihydropyrido[4,3-d]pyrimidin-6(5H)-yl)-2-methoxyethanone]
10 to 100 | CCNc1nc(Nc2ccc(-n3cnc(Cl)c3)c(OC)c2)nc2c1CN(S(=O)(=O)CC)CC2c1ccccc1 (centres unmarked) [Example 138, N2-(4-(4-chloro-1H-imidazol-1-yl)-3-methoxyphenyl)-N4-ethyl-6-(ethylsulfonyl)-8-phenyl-5,6,7,8-tetrahydropyrido[4,3-d]pyrimidine-2,4-diamine]
1.5 to 9.9 | CCNc1nc(Nc2ccc(-n3cnc(Cl)c3)c(OC)c2)nc2c1CN(S(=O)(=O)CC)CC2c1ccccc1 (centres unmarked) [Example 138A, N2-(4-(4-chloro-1H-imidazol-1-yl)-3-methoxyphenyl)-N4-ethyl-6-(ethylsulfonyl)-8-phenyl-5,6,7,8-tetrahydropyrido[4,3-d]pyrimidine-2,4-diamine]
10 to 100 | CCNc1nc(Nc2ccc(-n3ncnc3C)c(F)c2)nc2c1CN(S(C)(=O)=O)CC2c1ccccc1 (centres unmarked) [Example 140, N4-ethyl-N2-(3-fluoro-4-(5-methyl-1H-1,2,4-triazol-1-yl)phenyl)-6-(methylsulfonyl)-8-phenyl-5,6,7,8-tetrahydropyrido[4,3-d]pyrimidine-2,4-diamine]
1.5 to 9.9 | CCNc1nc(Nc2ccc(-n3ncnc3C)c(F)c2)nc2c1CN(S(C)(=O)=O)CC2c1ccccc1 (centres unmarked) [Example 140A, N4-ethyl-N2-(3-fluoro-4-(5-methyl-1H-1,2,4-triazol-1-yl)phenyl)-6-(methylsulfonyl)-8-phenyl-5,6,7,8-tetrahydropyrido[4,3-d]pyrimidine-2,4-diamine]
10 to 100 | CNc1nc(Nc2ccc(-n3cnc(C)n3)c(F)c2)nc2c1CN(S(=O)(=O)C1CC1)CC2c1ccccc1 (centres unmarked) [Example 141, 6-(cyclopropylsulfonyl)-N2-(3-fluoro-4-(3-methyl-1H-1,2,4-triazol-1-yl)phenyl)-N4-methyl-8-phenyl-5,6,7,8-tetrahydropyrido[4,3-d]pyrimidine-2,4-diamine]
